Tests used:
[1] = system: Dermabacter hominis T49B5; assay: Antimicrobial assay (MIC, agar dilution); assay type: cell-based
Experimental: (§1) The antimicrobial activity of crude extract and partitions was evaluated against 36 pathogenic microorganisms (22 Gram-positive bacteria, 13 Gram-negative bacteria, and 1 yeast) according to Mahamodo et al.. The 36 microorganisms were grown overnight at 37°C on sloping Mueller-Hinton (MH) agar medium. Briefly, the bacteria were diluted with Ringer's Cysteine (RC) solution to obtain 10^6 bacteria/ml. […] Inocula of 10^4 colony forming units (CFU) were spotted ultimately with a multipoint inoculator (Steers Replicator).

[2] = system: Staphylococcus pettenkoferi T282; assay: Antimicrobial assay (MIC, agar dilution); assay type: cell-based
Experimental: as §1

[3] = system: Staphylococcus pettenkoferi T33; assay: Antimicrobial assay (MIC, agar dilution); assay type: cell-based
Experimental: as §1

[4] = system: Staphylococcus aureus T26A4; assay: Antimicrobial assay (MIC, agar dilution); assay type: cell-based
Experimental: as §1

[5] = system: Staphylococcus aureus T2510; assay: Antimicrobial assay (MIC, agar dilution); assay type: cell-based
Experimental: as §1

[6] = system: Dermabacter hominis T47A7; assay: Antimicrobial assay (MIC, agar dilution); assay type: cell-based
Experimental: as §1

[7] = system: Corynebacterium striatum T46C1; assay: Antimicrobial assay (MIC, agar dilution); assay type: cell-based
Experimental: as §1

[8] = system: Staphylococcus aureus T306; assay: Antimicrobial assay (MIC, agar dilution); assay type: cell-based
Experimental: as §1

[9] = system: Pseudomonas aeruginosa T41; assay: Antimicrobial assay (MIC, agar dilution); assay type: cell-based
Experimental: as §1

[10] = system: Staphylococcus capitis T21A3; assay: Antimicrobial assay (MIC, agar dilution); assay type: cell-based
Experimental: as §1

[11] = system: Staphylococcus aureus T61; assay: Antimicrobial assay (MIC, agar dilution); assay type: cell-based
Experimental: as §1

[12] = system: Staphylococcus lugdunensis T47B2; assay: Antimicrobial assay (MIC, agar dilution); assay type: cell-based
Experimental: as §1

[13] = system: Staphylococcus epidermidis T19A1; assay: Antimicrobial assay (MIC, agar dilution); assay type: cell-based
Experimental: as §1

[14] = system: Staphylococcus aureus T281; assay: Antimicrobial assay (MIC, agar dilution); assay type: cell-based
Experimental: as §1

[15] = system: Staphylococcus capitis T29A2; assay: Antimicrobial assay (MIC, agar dilution); assay type: cell-based
Experimental: as §1

[16] = system: Enterococcus faecalis T37B1; assay: Antimicrobial assay (MIC, agar dilution); assay type: cell-based
Experimental: as §1

[17] = system: Staphylococcus aureus 8148; assay: Antimicrobial assay (MIC, agar dilution); assay type: cell-based
Experimental: as §1

[18] = system: Staphylococcus aureus T21; assay: Antimicrobial assay (MIC, agar dilution); assay type: cell-based
Experimental: as §1

[19] = system: Staphylococcus aureus 8142; assay: Antimicrobial assay (MIC, agar dilution); assay type: cell-based
Experimental: as §1

[20] = system: Streptococcus agalactiae T53A4; assay: Antimicrobial assay (MIC, agar dilution); assay type: cell-based
Experimental: as §1

[21] = system: Staphylococcus aureus T11; assay: Antimicrobial assay (MIC, agar dilution); assay type: cell-based
Experimental: as §1

[22] = system: Staphylococcus epidermidis T151; assay: Antimicrobial assay (MIC, agar dilution); assay type: cell-based
Experimental: as §1

Escherichia coli T20A2 = assay: Antimicrobial assay (MIC, agar dilution); assay type: cell-based
Experimental: as §1

[23] = system: Enterococcus faecalis T47A16; assay: Antimicrobial assay (MIC, agar dilution); assay type: cell-based
Experimental: as §1

[24] = system: Staphylococcus lugdunensis T36A1; assay: Antimicrobial assay (MIC, agar dilution); assay type: cell-based
Experimental: as §1

[25] = system: Corynebacterium striatum T40A3; assay: Antimicrobial assay (MIC, agar dilution); assay type: cell-based
Experimental: as §1

[26] = system: Staphylococcus aureus 8143; assay: Antimicrobial assay (MIC, agar dilution); assay type: cell-based
Experimental: as §1

[27] = system: Pseudomonas aeruginosa ATCC9027; assay: Antimicrobial assay (MIC, agar dilution); assay type: cell-based
Experimental: as §1

[28] = system: Staphylococcus saprophyticus 8237; assay: Antimicrobial assay (MIC, agar dilution); assay type: cell-based
Experimental: as §1

[29] = system: several cultured human cancer cell lines; settings: cited from earlier work
[30] = system: WI38 (human normal fibroblast-like lung cell line); assay: MTT cytotoxicity assay on WI38; assay type: cell-based; settings: WI-38, 72 h, mean ± SEM, six determinations
Experimental: (§2) Cell Culture. The cytotoxicity was evaluated on two cell lines: J774 (macrophage-like cell line, derived from BALB/c murine reticulum cell sarcoma) and WI38 (human normal fibroblast-like lung cell line), using the tetrazolium salt MTT [3-(4,5-dimethylthiazol-2-yl)-2,5-diphenyltetrazolium bromide (Sigma)] colorimetric method, as described by Bero et al.. J774 cells were cultivated in a humidified atmosphere with 5% CO2 at 37°C in RPMI 1640 medium (Life Technologies, Paisley, UK) containing 2 mM L-glutamine supplemented with 10% heat-inactivated fetal bovine serum (Life Technologies) and penicillin-streptomycin (100 UI/ml). WI38 cells were cultivated in a humidified atmosphere with 5% CO2 at 37°C in DMEM medium (Life Technologies) containing 4 mM L-glutamine, 1 mM sodium pyruvate supplemented with 10% heat-inactivated fetal bovine serum (Life Technologies), and penicillin-streptomycin (100 UI/ml).
Cytotoxicity Assay. Briefly, WI38 or J774 cells were seeded in 96-well plates (5000 cells/well/180 µl medium or 2.8 × 10^4 cells/ml). After 24 h, cells were treated with 20 μl of crude extract and partitions solutions in a fixed concentration of 50 µg/ml to calculate cell viability percentage. […] Absorbance was recorded at 570 nm and 620 nm. […]
(§3) Cell viability% = [AT/ANT] × 100, with A: absorbance, NT: control cells, and T: treated cells.

[31] = system: J774 (macrophage-like cell line, derived from BALB/c murine reticulum cell sarcoma); assay: MTT cytotoxicity assay on J774; assay type: cell-based; settings: for IC50: Mus musculus, J774, MTT, 72 h, mean ± SEM, six determinations; for SI (IC50 WI38/IC50 J774): selectivity index WI38 vs J774
Experimental: as §2
Cytotoxicity Assay. Briefly, WI38 or J774 cells were seeded in 96-well plates (5000 cells/well/180 µl medium or 2.8 × 10^4 cells/ml). After 24 h, cells were treated with 20 μl of crude extract and partitions solutions in a fixed concentration of 50 µg/ml to calculate cell viability percentage. […] After 72 h, the medium was replaced by 100 μl of a 10% MTT solution (3 mg/ml in PBS) in medium. After 45 min, the medium was removed again and 100 μl of DMSO was added to solubilize formed formazan crystals. Absorbance was recorded at 570 nm and 620 nm. Each sample was tested in eight serial […] dilutions in 96-well microtiter plates, at least three wells per concentration in duplicate. Camptothecin (Sigma) was used as positive control (concentration range: 25–0.00032 µg/ml).
as §3

CC1(C)S[C@@H]2[C@H](NC(=O)[C@H](N)c3ccc(O)cc3)C(=O)N2[C@H]1C(=O)O [Amox, amoxicillin]
R (R: >16): Reference antibiotics MIC values ([3]; amoxicillin) | Reference antibiotics MIC values ([4]; amoxicillin) | Reference antibiotics MIC values ([5]; amoxicillin) | Reference antibiotics MIC values ([6]; amoxicillin) | Reference antibiotics MIC values ([9]; amoxicillin) | Reference antibiotics MIC values ([11]; amoxicillin) | Reference antibiotics MIC values ([14]; amoxicillin) | Reference antibiotics MIC values ([17]; amoxicillin) | Reference antibiotics MIC values ([18]; amoxicillin) | Reference antibiotics MIC values ([19]; amoxicillin) | Reference antibiotics MIC values ([20]; amoxicillin) | Reference antibiotics MIC values ([21]; amoxicillin) | Reference antibiotics MIC values ([22]; amoxicillin) | Reference antibiotics MIC values ([23]; amoxicillin) | Reference antibiotics MIC values ([25]; amoxicillin) | Reference antibiotics MIC values ([27]; amoxicillin)
S (Amox (amoxicillin), S: ≤4): Reference antibiotics MIC values ([1]; amoxicillin) | Reference antibiotics MIC values ([2]; amoxicillin) | Reference antibiotics MIC values ([7]; amoxicillin) | Reference antibiotics MIC values ([8]; amoxicillin) | Reference antibiotics MIC values ([10]; amoxicillin) | Reference antibiotics MIC values ([12]; amoxicillin) | Reference antibiotics MIC values ([13]; amoxicillin) | Reference antibiotics MIC values ([15]; amoxicillin) | Reference antibiotics MIC values ([16]; amoxicillin) | Reference antibiotics MIC values (Escherichia coli T20A2; amoxicillin) | Reference antibiotics MIC values ([24]; amoxicillin) | Reference antibiotics MIC values ([26]; amoxicillin) | Reference antibiotics MIC values ([28]; amoxicillin)

C=C(C)C(CC[C@@H](C)[C@H]1CC[C@@]2(C)[C@@H]3CC[C@H]4C(C)(C)[C@@H](O)CC[C@@]45C[C@@]35CC[C@]12C)OO (stereo partly drawn) [Compound 3b, 24-hydroperoxycycloart-25-en-3β-ol]
significant cytotoxic activity: cytotoxic activity [29]

CC[C@@]1(O)C(=O)OCc2c1cc1n(c2=O)Cc2cc3ccccc3nc2-1 [Camptothecin]
0.011 ± 0.002 µg/mL: IC50 [31]
0.175 ± 0.029 µg/mL: IC50 [30]
15^∗∗∗: SI (IC50 WI38/IC50 J774) [31]

CNC(C)C1CCC(N)C(OC2C(N)CC(N)C(OC3OCC(C)(O)C(NC)C3O)C2O)O1 (centres unmarked) [Gent, gentamicin]
S (Gent (gentamicin), S: ≤4): Reference antibiotics MIC values ([1]; gentamicin) | Reference antibiotics MIC values ([2]; gentamicin) | Reference antibiotics MIC values ([3]; gentamicin) | Reference antibiotics MIC values ([4]; gentamicin) | Reference antibiotics MIC values ([5]; gentamicin) | Reference antibiotics MIC values ([6]; gentamicin) | Reference antibiotics MIC values ([7]; gentamicin) | Reference antibiotics MIC values ([8]; gentamicin) | Reference antibiotics MIC values ([9]; gentamicin) | Reference antibiotics MIC values ([10]; gentamicin) | Reference antibiotics MIC values ([11]; gentamicin) | Reference antibiotics MIC values ([12]; gentamicin) | Reference antibiotics MIC values ([13]; gentamicin) | Reference antibiotics MIC values ([14]; gentamicin) | Reference antibiotics MIC values ([15]; gentamicin) | Reference antibiotics MIC values ([16]; gentamicin) | Reference antibiotics MIC values ([17]; gentamicin) | Reference antibiotics MIC values ([18]; gentamicin) | Reference antibiotics MIC values ([19]; gentamicin) | Reference antibiotics MIC values ([21]; gentamicin) | Reference antibiotics MIC values ([23]; gentamicin) | Reference antibiotics MIC values ([24]; gentamicin) | Reference antibiotics MIC values ([26]; gentamicin) | Reference antibiotics MIC values ([27]; gentamicin) | Reference antibiotics MIC values ([28]; gentamicin)
R (R: >8): Reference antibiotics MIC values ([22]; gentamicin) | Reference antibiotics MIC values (Escherichia coli T20A2; gentamicin) | Reference antibiotics MIC values ([25]; gentamicin)

C[C@H](C/C=C/C(C)(C)OO)[C@H]1CC[C@@]2(C)[C@@H]3CC[C@H]4C(C)(C)[C@@H](O)CC[C@@]45C[C@@]35CC[C@]12C [Compound 3a, 25-hydroperoxycycloart-23-en-3β-ol]
significant cytotoxic activity: cytotoxic activity [29]

CN[C@H](CC(C)C)C(=O)N[C@H]1C(=O)N[C@@H](CC(N)=O)C(=O)N[C@H]2C(=O)N[C@H]3C(=O)N[C@H](C(=O)N[C@H](C(=O)O)c4cc(O)cc(O)c4-c4cc3ccc4O)[C@H](O)c3ccc(c(Cl)c3)Oc3cc2cc(c3O[C@@H]2O[C@H](CO)[C@@H](O)[C@H](O)[C@H]2O[C@H]2C[C@](C)(N)[C@H](O)[C@H](C)O2)Oc2ccc(cc2Cl)[C@H]1O [Vanc, vancomycin]
S (Vanc (vancomycin), S: ≤4): Reference antibiotics MIC values ([1]; vancomycin) | Reference antibiotics MIC values ([2]; vancomycin) | Reference antibiotics MIC values ([3]; vancomycin) | Reference antibiotics MIC values ([4]; vancomycin) | Reference antibiotics MIC values ([5]; vancomycin) | Reference antibiotics MIC values ([6]; vancomycin) | Reference antibiotics MIC values ([7]; vancomycin) | Reference antibiotics MIC values ([8]; vancomycin) | Reference antibiotics MIC values ([10]; vancomycin) | Reference antibiotics MIC values ([11]; vancomycin) | Reference antibiotics MIC values ([12]; vancomycin) | Reference antibiotics MIC values ([14]; vancomycin) | Reference antibiotics MIC values ([15]; vancomycin) | Reference antibiotics MIC values ([16]; vancomycin) | Reference antibiotics MIC values ([17]; vancomycin) | Reference antibiotics MIC values ([18]; vancomycin) | Reference antibiotics MIC values ([19]; vancomycin) | Reference antibiotics MIC values ([21]; vancomycin) | Reference antibiotics MIC values ([22]; vancomycin) | Reference antibiotics MIC values ([23]; vancomycin) | Reference antibiotics MIC values ([24]; vancomycin) | Reference antibiotics MIC values ([25]; vancomycin) | Reference antibiotics MIC values ([26]; vancomycin) | Reference antibiotics MIC values ([28]; vancomycin)
R (R: >16): Reference antibiotics MIC values ([9]; vancomycin) | Reference antibiotics MIC values ([13]; vancomycin) | Reference antibiotics MIC values ([20]; vancomycin) | Reference antibiotics MIC values (Escherichia coli T20A2; vancomycin) | Reference antibiotics MIC values ([27]; vancomycin)

C=C(C)[C@@H]1CC[C@]2(C)CC[C@]3(C)[C@H](CC[C@@H]4[C@@]5(C)CC[C@H](O)C(C)(C)[C@@H]5CC[C@]43C)[C@@H]12 [Compound 1, lupeol]
19.2 ± 0.55 µg/mL: IC50 [30]
12.6 ± 0.23 µg/mL: IC50 [31]
1.5: SI (IC50 WI38/IC50 J774) ([31]; listed as Lupeol)
1.5^∗∗∗: SI (IC50 WI38/IC50 J774) [31]

Reference: article PMC5529658, “Antiproliferative and Antibacterial Activities of Cirsium scabrum from Tunisia” (Evidence-based Complementary and Alternative Medicine : eCAM, 2017)
